{
  "source": "patent US9629813B2",
  "about": "“Nanoparticle formulations with enhanced mucosal penetration” (The Johns Hopkins University, priority 2012, dated 2017)",
  "key": {"[1]": {"assay": "Drug distribution in the vagina (Doxorubicin surface coverage on flattened tissue)", "assay_type": "in vivo, mouse", "conditions": "for vaginal tissue area covered: non-ambulatory (supine for 1 h)", "description": "(§1) Female 6-8 week-old CF-1 mice were purchased from Harlan (Indianapolis, Ind.). Mice were housed in a reverse light cycle facility (12 h light/12 h dark), to enable selection of mice in a naturally cycling estrus state. The mouse vagina during the estrus phase of the estrous cycle is most similar to the human vagina. Barrier properties to nanoparticles in estrus phase mouse mucus closely mimic the barrier properties to nanoparticles in human CVM. Thus, mice in estrus phase, as determined visually by the appearance of the vaginal introitus, were used for all distribution and retention studies. Mice used for vaginal HSV-2 protection and susceptibility studies were given a subcutaneous flank injection of 2.5 mg Depo-Provera (Pharmacia & Upjohn Company, New York, N.Y.) in 100 μL phosphate-buffered saline (PBS) 7 days prior to experiments. This treatment is commonly used to increase susceptibility to vaginal HSV-2 infection. All experimental protocols were approved by the Johns Hopkins Animal Care and Use Committee.\nDoxorubicin (NetQem, Durham, N.C.) was dissolved at 1 mg/ml concentration in either PBS (isoosmolar with respect to blood) or ultrapure water (hypoosmolar). For 1 liter of 1×PBS, 800 ml of distilled water; 8 g of NaCl; 0.2 g of KCl; 1.44 g of Na2HPO4; 0.24 g of KH2PO4: adjust the pH to 7.4 with HCl, add distilled water to a total volume of 1 liter.\nDoxorubicin was vaginally administered both isoosmotically and hypoosmotically to mice in two different conditions. The “non-ambulatory” group was anesthetized with an intraperitoneal injection of Avertin working solution (prepared according to Johns Hopkins ACUC guidelines) and remained supine for 1 hr prior to tissue collection. […] The images were ‘thresholded’ to draw region of interest boundaries around the fluorescent signal, and then the area covered quantified using ImageJ software. An average percentage coverage was determined for each mouse, and these values were averaged over groups of n=5 mice."}, "[2]": {"assay": "Drug retention in the vagina (Doxorubicin fluorescence of whole cervicovaginal tract)", "assay_type": "in vivo, mouse", "conditions": "after 10 min supine; normalized to isoosmolar group", "description": "Female 6-8 week-old CF-1 mice were purchased from Harlan (Indianapolis, Ind.). Mice were housed in a reverse light cycle facility (12 h light/12 h dark), to enable selection of mice in a naturally cycling estrus state. The mouse vagina during the estrus phase of the estrous cycle is most similar to the human vagina. Barrier properties to nanoparticles in estrus phase mouse mucus closely mimic the barrier properties to nanoparticles in human CVM. Thus, mice in estrus phase, as determined visually by the appearance of the vaginal introitus, were used for all distribution and retention studies. […]\nDoxorubicin vas dissolved at a concentration 1 mg/ml in phosphate buffeted saline (“PBS”) (isoosmolar with respect to blood) or ultrapure water (hypoosmolar). […] Fluorescence images of the tissues were obtained using the Xenogen IVIS Spectrum imaging device (Caliper Life Sciences). To account for potential differences in Doxorubicin solution fluorescence, vials of both isoosmolar and hypoosmolar Doxorubicin solutions were included in the image. The ratio of the intensity of the two solutions was used to normalize the tissue fluorescence for each group. Quantification of fluorescent counts per unit area was calculated using the Xenogen Living Image 2.5 software. […]"}, "[3]": {"assay": "Vaginal epithelial distribution of FITC-containing biodegradable MPP versus FITC in HEC gel after 24 h", "assay_type": "in vivo, mouse", "conditions": "MPP in UP water, FITC in isoosmolar HEC gel", "description": "Biodegradable MPP containing FITC intravaginally was administered in UP water. As a comparison, FITC in the standard isoosmolar placebo gel, hydroxyethylcellulose (HEC), was administered. After 24 h, the vaginal tissue was excised and flattened between two glass slides."}, "[4]": {"system": "HSV-2 strain G", "assay": "HSV-2 infection mouse model (vaginal protection)", "assay_type": "in vivo", "conditions": "10 ID50", "description": "as §1\nMice received 20 μl of 10 mg/ml acyclovir monophosphate dissolved in either PBS (isoosmolar) or ultrapure water (hypoosmolar) immediately before use. […] Mice were dosed either 1 min or 60 min prior to viral inoculum. Mice were then challenged with 10 μl of inoculum containing HSV-2 strain G (ATCC #VR-724, 2.8×10^7 TCID50 per ml). For protection studies, HSV-2 was diluted 10-fold with Bartel's medium to deliver 10 ID50, a dose that typically infects 85-90% of control mice. For osmotic-induced susceptibility tests, virus was diluted 10-fold with Bartel's medium and further diluted 10-fold in either Bartel's medium (isoosmolar) or deionized water (hypoosmolar) to the ID50, a dose that infects half of the mice. Mice were assessed for infection three days later after inoculation by culturing a PBS vaginal lavage on human foreskin fibroblasts (Diagnostic Hybrids, MRHF Lot #440318W). In this model, input (challenge) virus is no longer detectable in lavage fluid if it is collected more than 12 h after the challenge.\nThe Wilcoxon rank-sum test was used to compare data sets. This test is non-parametric, and more appropriate in situations where a Gaussian distribution cannot be assumed. For HSV-2 infection studies, statistical significance was determined using Fisher's exact test, two-tailed distribution."}},
  "data": [
    {"compound": "COc1cccc2c1C(=O)c1c(O)c3c(c(O)c1C2=O)C[C@@](O)(C(=O)CO)C[C@@H]3O[C@H]1C[C@H](N)[C@H](O)[C@H](C)O1", "note": "[Doxorubicin]", "values": [
      {"measurement": "vaginal surface area covered", "setting": "[1]; ambulatory for 10 mins, isoosmolar (isotonic) solution", "result": 25, "unit": "%"},
      {"measurement": "vaginal tissue area covered", "setting": "[1]; hypoosmolar solution (ultrapure water)", "result": 88, "unit": "%"},
      {"measurement": "vaginal tissue area covered", "setting": "[1]; isoosmolar solution (PBS)", "result": 15, "unit": "%"},
      {"measurement": "relative fluorescent signal in reproductive tract, hypoosmolar versus isoosmolar solution", "setting": "[2]", "result": "half"}
    ]},
    {"compound": "FITC", "values": [
      {"measurement": "epithelial distribution on flattened vaginal tissue", "setting": "[3]", "result": "sparsely distributed"}
    ]},
    {"compound": "acyclovir monophosphate [ACVp]", "values": [
      {"measurement": "mice infected", "setting": "[4]; 1% ACVp 1 min before virus, administered hypotonically", "result": 31, "unit": "%"},
      {"measurement": "mice infected", "setting": "[4]; 1% ACVp 1 min before virus, administered isotonically", "result": 49, "unit": "%"},
      {"measurement": "mice infected", "setting": "[4]; 1% ACVp 1 h before virus, administered hypotonically", "result": 73, "unit": "%"},
      {"measurement": "mice infected", "setting": "[4]; 1% ACVp 1 h before virus, administered isotonically", "result": 45, "unit": "%"}
    ]}
  ]
}
